# According to US8722580B2, “Agent for inhibiting cytokinin signaling” (Sumitomo Chemical Company, Limited, priority 2006, dated 2014):
# Tests used:
# Arabidopsis thaliana [1] = assay: Root growth-promoting activity test (Example 9); format: in vivo; settings: Arabidopsis thaliana, 240 h, main root length vs control section, 22° C., 10 days; for activity at 5 ppm: test final concentration 5 ppm (concentration with highest root growth rate)
# Outline: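 Arabidopsis seeds (10–20 per tube) were grown in Enshi standard medium containing the compound from DMSO at 0.001–10 ppm final, at 22° C in light for 10 days. Main root length was averaged over eight repeats and expressed as % of the control.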
# cytokinin receptor CRE1 = target: T1, cytokinin receptor CRE1 (Arabidopsis thaliana, UniProt Q9C5U0, S567G/T1018A); assay: Inhibition of intracellular signaling from plant-derived cytokinin receptor, growth of transformed yeast cell TM182-CRE1; format: cell-based; settings: for inhibition at 2 ppm: read-out: Activity (%) of test substance for inhibiting intracellular signaling from plant-derived cytokinin receptor of cell; for Relative growth rate (%) in test section of test substance to control section, Transformed cell TM182-CRE1: 30° C., 24 hours, turbidity OD 600
# T1 construct: expressed in transfected cells; host or cells: Saccharomyces cerevisiae TM182 (sln1Δ) transformed with p415CYC-CRE1
# Outline: (§1)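 Yeast TM182-CRE1 (DOLU+Glu) or control TM182-p415CYC1 (DOLU+Gal), after 18 h preculture at 30° C and dilution to OD600=0.1, exposed to compound at 2 ppm plus trans-zeatin 0.6 ppm for 24 h at 30° C. OD600 vs DMSO control, blank-corrected; inhibition = 100 − relative growth %.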
# [2] = tested on: transformed cell TM182-p415CYC1; assay: Control growth test with transformed yeast cell TM182-p415CYC1 (toxicity to yeast); format: cell-based; settings: trans-zeatin 0.6 ppm; chemical substance 2 ppm; 30° C., 24 hours; turbidity OD 600
# Outline: as §1
# rice [3] = assay: Root growth-promoting activity using rice, seed growth pouch (Example 11); format: in vivo, Oriza sativa L. japonica; settings: 25° C., 7 days
# Description: With respect to the chemical substance Ic3-1 and the chemical substance Ic7-1 (which inhibit intracellular signaling from a plant-derived cytokinin receptor of a cell) selected in Example 7, a main root-growth promoting activity was evaluated using rice (Oriza sativa L. japonica). Aqueous solutions of the chemical substance having different concentrations (10 ppm, 25 ppm, each containing 0.1% DMSO) were prepared. A naper towel was impregnated with 17 ml of the chemical solution, wherein the heavy paper was placed in a seed growth pouch for observation of root growth (177 mm×163 mm, manufactured by Daiki Rika Kogyo Co., Ltd.), and 3 rice seeds were sowed on the paper towel. The pouch was put in a plastic container, and then sealed. After culture in the light at 25° C. for 7 days, the length of a main root was measured. An average of 3 repeats was determined and a root growth rate was determined by the following equation. Root growth rate (%)=(Average main root length in chemical substance-treated section)/(Average main root length in control section)×100−100
# rice [4] = assay: Root growth-promoting activity by rice seed treatment (Example 12); format: in vivo, Oriza sativa L. japonica; settings: rice seeds treated with 10,000 ppm acetone solution; 4 days dark at 30° C. then 35 days greenhouse
# Description: With respect to the chemical substance Ic3-1 and the chemical substance Ic7-1 (which inhibit intracellular signaling from a plant-derived cytokinin receptor of a cell) selected in Example 7, a main root-growth promoting activity induced by seed treatment was evaluated using rice (Oriza sativa L. japonica). The chemical substance was dissolved in acetone to prepare a 10,000 ppm solution. The acetone chemical substance solution (300 μl) thus prepared was put in an eppendorf tube. Then, 15 seeds were put in the eppendorf tube. The resulting mixture was mixed for about 30 seconds. The seeds thus chemical-treated were spread and dried on a filter paper.
# About 820 ml of culture soil was placed in a plastic container (120 mm in length, 97 mm in height) with a hole in the bottom. The chemical-treated seeds were sowed in the plastic container (15 seeds per plastic container). The seeds were cultivated in a dark place at 30° C. for 4 days and then cultivated in a greenhouse for 35 days. Roots of the plant thus cultivated were removed and the soil adhered to the plant was washed away, followed by freeze-drying. Then, the weight of roots after freeze-drying was measured. A test was repeated 3 times for each treatment section, and an average was determined.
# [5] = tested on: hypocotyl of Arabidopsis thaliana; assay: Plant differentiation-promoting activity, adventitious root formation from hypocotyl (Example 13); format: in vivo, Arabidopsis thaliana Columbia; settings: agar medium with trans-zeatin 0.01 ppm
# Description: With respect to the chemical substance Ic3-1 and the chemical substance Ic7-1 (which inhibit intracellular signaling from a plant-derived cytokinin receptor of a cell) selected in Example 7, a plant differentiation-promoting activity was evaluated by examining an adventitious root formation activity using an hypocotyl of Arabidopsis thaliana Columbia.
# First, an agar medium for sowing Arabidopsis thaliana was prepared. The agar medium contains, as components per 1 liter of an aqueous solution, 1 parcel of mixed salts for Murashige-Scoog plant medium (Wako Pure Chemical Industries, Ltd.) for 1 liter, 10 g of sucrose, 10 ml of an aqueous 5% MES (2-(N-Morpholino)ethanesulfonic acid) solution adjusted to pH 5.7 with potassium hydroxide, 100 mg of inositol, 1 ml of vitamins stock solution (10 g of thiamine hydrochloride, 1 g of pyridoxine hydrochloride, and 1 g of nicotinic acid per 1 liter of an aqueous solution) and 8 g of agar. Then, the agar medium was subjected to autoclave at 120° C. for 20 minutes, dispensed to circular petri dishes, and then solidified.
# Seeds of Arabidopsis thaliana (about 25 μl) were put in a 1.5 ml tube. Thereto was added 1 ml of a 10-fold diluted solution of a sodium hypochlorite solution (Nacalai Tesque) with sterilized distilled water. The seed were sterilized while stirring for about 1 minute with a tube mixer (TOMY, MT-360, MIXING SPEED10). […]
# Arabidopsis thaliana [6] = assay: Root growth-promoting activity test (Example 22); format: in vivo; settings: main root length vs control section, 22° C., 10 days
# Description: Enshi standard medium having the following composition (see Table 18) was prepared. To cluster tubes was dispensed each 4 μl of a solution of a chemical substance in DMSO to a final concentration of 0.001 ppm to 10 ppm, and then, was dispensed each 600 μl of the sterilized Enshi standard medium. Then the resulting solution was well mixed. In each of the cluster tubes, 10-20 seeds of Arabidopsis thaliana were sown, and cultured at 22° C. for 10 days in the light. Then, the length of main roots (average main roots) generated from the seeds of Arabidopsis thaliana was measured. An average of eight repeats was determined, and a root growth rate was determined according to the following equation.
# Root growth rate (%)=(Average main root length in chemical substance-treated section)/(Average main root length in control section)×100
# Enshi standard medium determined having the following composition (Table 18) was prepared. A DMSO solution of a chemical substance was dispensed by 4 μl to cluster tubes to a final concentration of 0.001 ppm to 10 ppm and the sterilized Enshi standard medium was dispensed by 600 μl and then the resulting solution was well mixed. 10-20 seeds of A. thaliana per cluster tube were sown in the cluster tubes. After culture at 22° C. for 10 days in bright light, the length of main roots (average main roots) took from seeds of A. thaliana was measured. An average of eight repeats was determined and the root growth rate was determined.
# Root growth rate (%)=(Average main root length of chemical substance-treated section)/(Average main root length of control section)×100
# [7] = trans-zeatin 0.6 ppm, chemical substance 2 ppm
# T1 sequence (Q9C5U0 24-1080 S567G/T1018A): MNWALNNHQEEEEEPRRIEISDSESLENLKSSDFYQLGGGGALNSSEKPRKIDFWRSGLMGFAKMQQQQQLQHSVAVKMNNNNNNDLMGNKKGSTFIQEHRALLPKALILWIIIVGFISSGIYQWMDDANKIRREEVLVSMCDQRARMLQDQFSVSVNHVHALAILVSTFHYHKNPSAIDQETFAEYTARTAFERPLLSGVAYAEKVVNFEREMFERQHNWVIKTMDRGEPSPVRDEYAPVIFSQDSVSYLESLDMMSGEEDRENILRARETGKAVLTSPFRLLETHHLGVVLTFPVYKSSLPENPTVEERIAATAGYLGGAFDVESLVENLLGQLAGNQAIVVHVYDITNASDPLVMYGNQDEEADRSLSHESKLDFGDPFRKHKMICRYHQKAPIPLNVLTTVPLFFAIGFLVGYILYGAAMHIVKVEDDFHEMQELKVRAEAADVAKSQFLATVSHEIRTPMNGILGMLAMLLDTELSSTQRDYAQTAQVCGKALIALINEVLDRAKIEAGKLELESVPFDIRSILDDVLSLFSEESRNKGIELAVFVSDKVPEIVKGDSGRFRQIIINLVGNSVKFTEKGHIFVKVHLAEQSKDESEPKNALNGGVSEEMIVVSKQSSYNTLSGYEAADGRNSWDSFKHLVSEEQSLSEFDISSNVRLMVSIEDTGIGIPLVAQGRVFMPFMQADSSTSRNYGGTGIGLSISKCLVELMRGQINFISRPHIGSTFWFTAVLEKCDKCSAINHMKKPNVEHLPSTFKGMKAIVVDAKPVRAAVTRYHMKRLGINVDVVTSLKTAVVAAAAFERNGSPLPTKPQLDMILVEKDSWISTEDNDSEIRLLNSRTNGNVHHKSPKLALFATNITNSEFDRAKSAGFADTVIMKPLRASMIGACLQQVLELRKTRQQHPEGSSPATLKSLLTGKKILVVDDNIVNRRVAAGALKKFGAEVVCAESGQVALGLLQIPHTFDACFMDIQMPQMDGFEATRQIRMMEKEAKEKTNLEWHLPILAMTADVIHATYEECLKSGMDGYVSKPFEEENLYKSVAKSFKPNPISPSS
SMILES,melting point [°C],activity at 5 ppm (Arabidopsis thaliana [1]) [%],inhibition at 2 ppm (cytokinin receptor CRE1) [%],"Relative growth rate (%) in test section of test substance to control section, Transformed cell TM182-CRE1 (cytokinin receptor CRE1; [7]) [%]","Relative growth rate (%) in test section of test substance to control section, Transformed cell TM182-p415CYC1 [2] [%]","dry weight of roots per plant, % of the control section (rice [4]) [%]",also measured
"OCCSc1nc(-c2ccccc2)c2cc(Cl)ccc2n1 [Ie3-1, 6-chloro-2-(2-hydroxyethylthio)-4-phenylquinazoline]",124.4,121,97.7,2.3,110.7,–,–
"OCCNc1nc(-c2ccccc2)c2cc(Cl)ccc2n1 [Ic3-1, 6-chloro-2-(2-hydroxyethylamino)-4-phenylquinazoline]",137.9,–,94.6,5.4,114.1,119,"main root growth increase relative to the control section (rice [3]; 10 ppm): 17%; main root growth increase relative to the control section (rice [3]; 25 ppm): 20%; adventitious root formation from the hypocotyl portion ([5]; all test sections, final concentration 6 ppm, 2 ppm, 0.6 ppm or 0.2 ppm): adventitious roots were formed"
"Clc1ccc2nc(NCc3ccco3)nc(-c3ccccc3)c2c1 [Ic3-16, 6-chloro-2-furfurylamino-4-phenylquinazoline]",142,155,96.8,3.2,97.0,–,Root growth-promoting activity (root growth rate) (Arabidopsis thaliana [6]; test final concentration 5 ppm (highest root growth rate)): 155.3%
"Clc1ccc2nc(Cl)nc(-c3ccccc3)c2c1 [Ia1-3, 2,6-dichloro-4-phenylquinazoline]",166.2,138,94.5,5.5,113.9,–,–
"CONc1nc(-c2ccccc2)c2cc(Cl)ccc2n1 [Ic3-32, 6-chloro-2-methoxyamino-4-phenylquinazoline]",173.9,123,95.5,4.5,89.2,–,–
"CCOC(=O)CNc1nc(-c2ccccc2)c2cc(Cl)ccc2n1 [Ic3-33, 6-chloro-2-ethoxycarbonylmethylamino-4-phenylquinazoline]",146.1,124,99,1.0,114.6,–,Root growth-promoting activity (root growth rate) (Arabidopsis thaliana [6]; test final concentration 10 ppm (highest root growth rate)): 140.4%
O=[N+]([O-])c1ccc2nc(NCCCO)nc(-c3ccccc3)c2c1 [Ic7-1],–,–,–,6.7,115.8,126,"main root growth increase relative to the control section (rice [3]; 10 ppm): 17%; main root growth increase relative to the control section (rice [3]; 25 ppm): 19%; Activity (%) of test substance for inhibiting intracellular signaling from plant-derived cytokinin receptor of cell (cytokinin receptor CRE1; trans-zeatin 0.6 ppm, chemical substance 2 ppm, = 100 − relative growth rate of TM182-CRE1): 93.3%; adventitious root formation from the hypocotyl portion ([5]; test sections with final concentration 6 ppm or 2 ppm): adventitious roots were formed"
"O=C(O)Cc1c[nH]c2ccccc12 [IAA, reference compound]",–,–,–,–,–,87,–
"CN(N)c1nc(-c2ccccc2)c2cc(Cl)ccc2n1 [Ic3-27, 6-chloro-2-(1-methylhydrazino)-4-phenylquinazoline]",155.9,–,97.7,2.3,107.4,–,activity at 2.5 ppm (Arabidopsis thaliana [1]; test final concentration 2.5 ppm (concentration with highest root growth rate)): 128%
"O=CNc1nc(-c2ccccc2)c2cc(Cl)ccc2n1 [Ic3-35, 6-chloro-2-formamido-4-phenylquinazoline]",252.1,–,–,–,–,–,activity at 10 ppm (Arabidopsis thaliana [1]; test final concentration 10 ppm (concentration with highest root growth rate)): 144%; Root growth-promoting activity (root growth rate) (Arabidopsis thaliana [6]; test final concentration 2.5 ppm (highest root growth rate)): 134.0%
